Test results taken from patent EP1617853B1, “ISOLATION OF THE HEPATOPROTECTIVE AGENT ACTEOSIDE FROM COLERBROKEA OPPOSITIFOLIA” (COUNCIL OF SCIENTIFIC AND INDUSTRIAL RESEARCH, priority 2003, dated 2004).

Tested on: CCl4 induced hepatic injury
Experiment: Hepatoprotective potential against CCl4 induced hepatic injury (prophylactic)
Assay type: in vivo, Rodents
Conditions: for ALP % protection / Albumin % protection / Bilirubin % protection / GOT % protection / GPT % protection / GSH % protection / LP % protection / TG % protection: value within parenthesis
Description: The compound has been bioevaluated for hepatoprotective/antihepatotoxic activity by using a comprehensive study design annexed herewith as Annexure-2. The parameters studied during the bioevaluation to establish the bioefficacy and optimum dose were preferred using the kits (Clonital, Italy and Accurex Biomedical Pvt. Ltd Thane). The list of the parameters is given in Annexure-2 appended herewith. The dose response graphs with respect to different parameters in comparison with the standard drug with silymarin and glycyrrhizin are given in Annexure-3 appended herewith.
Hepatoprotective activity (H) was calculated by the following equation : H = [1-(TC-V/VC-V)]x100 [formula]
Where TC, VC, and V are drug + toxin, vehicle + toxin and vehicle treated groups of animals respectively. Table-1: Hepatoprotective potential of Acteoside against CCl4 induced hepatic injury in Rodents Prophylactic).

[1] = 0.625 mg/kg p.o. + CCl4 1 ml/kg p.o., prophylactic, mean ± SE of six animals
[2] = 0.625 mg/kg p.o. + CCl4 1 ml/kg p.o., prophylactic
[3] = 1.25 mg/kg p.o. + CCl4 1 ml/kg p.o., prophylactic, mean ± SE of six animals
[4] = 1.25 mg/kg p.o. + CCl4 1 ml/kg p.o., prophylactic
[5] = 2.5 mg/kg p.o. + CCl4 1 ml/kg p.o., prophylactic, mean ± SE of six animals
[6] = 2.5 mg/kg p.o. + CCl4 1 ml/kg p.o., prophylactic
[7] = 5.0 mg/kg p.o. + CCl4 1 ml/kg p.o., prophylactic, mean ± SE of six animals
[8] = 5.0 mg/kg p.o. + CCl4 1 ml/kg p.o., prophylactic
[9] = Acteoside only (Per-se), 5 mg/kg p.o., no CCl4, mean ± SE of six animals
[10] = 100 mg/kg p.o. + CCl4 1 ml/kg p.o., prophylactic, mean ± SE of six animals
[11] = 100 mg/kg p.o. + CCl4 1 ml/kg p.o., prophylactic, mean ± SE of six animals, unit = µ mole pyruvate/min/L
[12] = 100 mg/kg p.o. + CCl4 1 ml/kg p.o., prophylactic

C[C@@H]1O[C@@H](O[C@@H]2[C@@H](O)[C@H](OCCc3ccc(O)c(O)c3)O[C@H](CO)[C@H]2OC(=O)/C=C/c2ccc(O)c(O)c2)[C@H](O)[C@H](O)[C@H]1O [Acteoside, β-(3',4'-dihydroxyphenyl) ethyl -O-α-L-rhamnopyranosyl (1→3)-β-D-(4-O-caffeoyl)-glucopyranoside]
Hepatic parameters GSH (glutathione) [1]: 4.66±0.28 µ mole GSH/g liver | Hepatic parameters LP (lipid peroxidation) [1]: 61.08±3.39 n mole MDA/g liver | Serum parameter ALP [1]: 66.80±3.53 µ mole of p-nitrophenol formed /min/L | Serum parameter Albumin [1]: 3.06±0.07 g % | Serum parameter Bilirubin [1]: 0.70±0.03 mg % | Serum parameter TG [1]: 80.15±3.53 mg % | ALP % protection [2]: 21.48% | Albumin % protection [2]: 21.43% | Bilirubin % protection [2]: 12.24% | GOT % protection [2]: 36.64% | GPT % protection [2]: 39.44% | GSH % protection [2]: 27.86% | LP % protection [2]: 43.53% | TG % protection [2]: 17.63% | Hepatic parameters GSH (glutathione) [3]: 5.93±0.32 µ mole GSH/g liver | Hepatic parameters LP (lipid peroxidation) [3]: 52.61±2.25 n mole MDA/g liver | Serum parameter ALP [3]: 59.10±3.09 µ mole of p-nitrophenol formed /min/L | Serum parameter Albumin [3]: 3.25±0.14 g % | Serum parameter Bilirubin [3]: 0.59±0.03 mg % | Serum parameter TG [3]: 74.38±3.78 mg % | ALP % protection [4]: 38.72% | Albumin % protection [4]: 35.00% | Bilirubin % protection [4]: 34.69% | GOT % protection [4]: 55.43% | GPT % protection [4]: 51.01% | GSH % protection [4]: 52.96% | LP % protection [4]: 59.38% | TG % protection [4]: 27.13% | Hepatic parameters GSH (glutathione) [5]: 6.72±0.28 µ mole GSH/g liver | Hepatic parameters LP (lipid peroxidation) [5]: 45.46±2.79 n mole MDA/g liver | Serum parameter ALP [5]: 51.20±1.42 µ mole of p-nitrophenol formed /min/L | Serum parameter Albumin [5]: 3.55±0.22 g % | Serum parameter Bilirubin [5]: 0.50±0.03 mg % | Serum parameter TG [5]: 59.85±1.88 mg % | ALP % protection [6]: 56.40% | Albumin % protection [6]: 56.43% | Bilirubin % protection [6]: 53.06% | GOT % protection [6]: 58.92% | GPT % protection [6]: 59.79% | GSH % protection [6]: 68.57% | LP % protection [6]: 72.76% | TG % protection [6]: 51.06% | Hepatic parameters GSH (glutathione) [7]: 7.02±0.46 µ mole GSH/g liver | Hepatic parameters LP (lipid peroxidation) [7]: 44.22±1.66 n mole MDA/g liver | Serum parameter ALP [7]: 46.37±1.89 µ mole of p-nitrophenol formed /min/L | Serum parameter Albumin [7]: 3.91±0.12 g % | Serum parameter Bilirubin [7]: 0.42±0.02 mg % | Serum parameter TG [7]: 49.31±1.47 mg % | ALP % protection [8]: 67.21% | Albumin % protection [8]: 32.14% | Bilirubin % protection [8]: 69.38% | GOT % protection [8]: 70.49% | GPT % protection [8]: 66.08% | GSH % protection [8]: 74.50% | LP % protection [8]: 75.07% | TG % protection [8]: 68.42% | Hepatic parameters GSH (glutathione) [9]: 8.33±0.33 µ mole GSH/g liver | Hepatic parameters LP (lipid peroxidation) [9]: 30.52±1.38 n mole MDA/g liver | Serum parameter ALP [9]: 31.87±2.15 µ mole of p-nitrophenol formed /min/L | Serum parameter Albumin [9]: 4.66±0.18 g % | Serum parameter Bilirubin [9]: 0.27±0.02 mg % | Serum parameter TG [9]: 31.10±2.39 mg % | Serum parameter GOT (Acteoside only (Per-se), 5 mg/kg p.o., no CCl4, mean ± SE of six animals, unit = µ mole pyruvate/min/L): 94.71±5.29 Units | overall percent protection (with reference to all the parameters studied, CCl4, dose of 1.25 mg upto 5 mg/kg): 40-80%

CC1(C)[C@@H](O[C@H]2O[C@H](C(=O)O)[C@@H](O)[C@H](O)[C@H]2O[C@@H]2O[C@H](C(=O)O)[C@@H](O)[C@H](O)[C@H]2O)CC[C@]2(C)[C@H]3C(=O)C=C4[C@@H]5C[C@@](C)(C(=O)O)CC[C@]5(C)CC[C@@]4(C)[C@]3(C)CC[C@@H]12 [Glycyrrhizin, reference compound]
Hepatic parameters GSH (glutathione) [10]: 5.96 ±0.26 µ mole GSH/g liver | Hepatic parameters LP (lipid peroxidation) [10]: 54.37 ± 4.32 n mole MDA/g liver | Serum parameter ALP [10]: 55.63 ± 3.52 µ mole of p-nitrophenol formed /min/L | Serum parameter Albumin [10]: 3.30 ± 0.12 g % | Serum parameter Bilirubin [10]: 0.55 ± 0.04 mg % | Serum parameter TG [10]: 65.31 ± 3.69 mg % | Serum parameter GOT [11]: 494.27 ± 36.28 Units | Serum parameter GPT [11]: 746.87 ± 49.77 Units | ALP % protection [12]: 46.48% | Albumin % protection [12]: 38.57% | Bilirubin % protection [12]: 42.85% | GOT % protection [12]: 56.44% | GPT % protection [12]: 53.87% | GSH % protection [12]: 53.55% | LP % protection [12]: 56.08% | TG % protection [12]: 42.07%
